Tested on: Normal human fibroblasts
Procedure: Normal human fibroblasts were trypsinised and seeded in 12 well plates at a density of […]. When confluent, the cells were transferred to a culture medium with an amino acid distribution and concentrations designed to mimic those in human serum as closely as possible. The cell cultures were divided into two categories, a control culture in which the culture medium contained 0.201 mM proline and an experimental sample in which the culture medium contained 0.592 mM proline. After 24 hours fibroblast-conditioned medium containing 100 microgram/ml beta-aminoproprionitrile to prevent cross-linking of collagen molecules in the cultures was collected. The conditioned medium was dotblotted to a nitrocellulose membrane and probed for collagen type I content with a polyclonal immune-absorbed antibody. The value shown for the proline-supplemented samples is relative to the controls set at 100%.

O=C(O)[C@@H]1CCCN1 [Proline, proline]
% of control value (collagen type I content) (0.502 mM proline in culture medium vs control medium with 0.201 mM proline set at 100%, conditioned medium collected after 24 hours): 150% ± 21.9% | increase in collagen synthesis (human fibroblasts, proline-supplemented medium vs control): 50%

From patent US20140357553A1, “NUTRITIONAL COMPOSITION FOR WOUND HEALING” (Nestec S.A., priority 2003, published 2014)
